Series [1] deals with T1, CDC7/DBF4 (Homo sapiens, UniProt O00311). Briefly: Inhibitory effect against activity of Cdc7/DBF4 kinase (ADP-Glo kit). It counts as biochemical. Also noted: purchased Promega. The following applies: 10 μM ATP, 25° C., 60 min. Here is the method: Experimental Example 1. Detection of Inhibitory Effect of Compounds Against Activity of Cdc7/DBF4 Kinase
Cdc7/DBF4 kinase detection kit purchased from Promega; and
(§1) Nivo multi-marker analyzer (PerkinElmer).
An enzyme, a substrate, adenosine triphosphate and an inhibitor were diluted with the kinase buffer in the kit.
A test compound was serially 5-fold diluted to an 8th concentration, i.e., from 10 μM to 0.13 nM, with the DMSO concentration being 5%, and the duplicate well experiment was set up. To a microplate were added 1 μL of inhibitors of various concentration gradients, 2 μL of CDC7/DBF4 kinase (6.25 ng), 2 μL of a mixture of substrate and ATP (10 μM adenosine triphosphate, 0.2 μg/μL substrate), and the final concentration gradient of the compound was diluted from 2 μM to 0.025 nM. The reaction system was left reacting at 25° C. for 60 min. After the reaction was completed, 5 μL of ADP-Glo reagent was added to each well, and the reaction was continued at 25° C. for 40 min. After the reaction was completed, 10 μL of the kinase detection reagent was added to each well. After 30 min of reaction at 25° C., the chemiluminescence was read using a multi-marker analyzer, with an integration time of 0.5 s.
The original data were converted to inhibition rate using the equation (Sample−Min)/(Max−Min)×100%, and the IC50 value was then curve fitted using four parameters (obtained from the “log(inhibitor) vs. response-Variableslope” model in GraphPadPrism). Table 1 provides the inhibitory activity of the compounds disclosed herein against Cdc7/DBF4 kinase.
(In general: ADP-Glo turns the ADP formed in a reaction into a luminescent signal.)

The test system of another series is COLO205 cells. The series can be described thus: Inhibitory activity against COLO205 cell proliferation (CellTiter-Glo). The class given is cell-based. As to conditions: Homo sapiens, COLO 205, 72 h; 3 days incubation. Here is the method:
Experimental Example 2. Detection of Inhibitory Effect of Compounds Against Activity of Colo205 Cells
1640 medium; fetal bovine serum; penicillin/streptomycin antibiotics purchased from Wisent;
CellTiter-Glo (chemiluminescence detection reagent for cell viability) reagent purchased from Promega;
COLO205 cell line purchased from Wuhan Procell Life Science&Technology Co., Ltd; and
as §1
COLO205 cells were plated on to white 96-well plates by adding 80 μL of cell suspension (containing 3000 COLO205 cells) to each well. The cell plate was incubated in a CO2 incubator overnight.
A test compound was serially 3-fold diluted to an 8th concentration, i.e., from 2 mM to 920 nM, and the duplicate well experiment was set up. […] Another cell plate was read for signal values on the day of compound addition, and these values were used as the […] in data analysis. The chemiluminescence detection reagent for cell viability was added to this cell plate at 25 μL per well and the luminescence signals were stabilized by incubation at room temperature for 10 min. Readings were taken using a multi-marker analyzer.
The chemiluminescence detection reagent for cell viability was added to the cell plate at 25 μL per well and the luminescence signals were stabilized by incubation at room temperature for 10 min. […]
For orientation: In ATP-based viability assays light output follows the ATP content of the culture.

In series [2] the target is T1, CDC7/DBF4. As to conditions: cited from earlier work.
Series [3] deals with colo205 cell line with high expression of Cdc7. The following applies: read-out: COL0205 IC50; cited from earlier work.
Another series concerns tumors in 25 PDX models. As to conditions: cited from earlier work.
The conditions of series [4]: cited from earlier work.

Read-outs that look alike come from different tables or passages of the source.

The source of these data is US20220389026A1, “TETRACYCLIC COMPOUND USED AS CDC7 INHIBITOR” (Chia Tai Tianqing Pharmaceutical Group Co., Ltd., priority 2019, published 2022).

T1 sequence (O00311 whole entry): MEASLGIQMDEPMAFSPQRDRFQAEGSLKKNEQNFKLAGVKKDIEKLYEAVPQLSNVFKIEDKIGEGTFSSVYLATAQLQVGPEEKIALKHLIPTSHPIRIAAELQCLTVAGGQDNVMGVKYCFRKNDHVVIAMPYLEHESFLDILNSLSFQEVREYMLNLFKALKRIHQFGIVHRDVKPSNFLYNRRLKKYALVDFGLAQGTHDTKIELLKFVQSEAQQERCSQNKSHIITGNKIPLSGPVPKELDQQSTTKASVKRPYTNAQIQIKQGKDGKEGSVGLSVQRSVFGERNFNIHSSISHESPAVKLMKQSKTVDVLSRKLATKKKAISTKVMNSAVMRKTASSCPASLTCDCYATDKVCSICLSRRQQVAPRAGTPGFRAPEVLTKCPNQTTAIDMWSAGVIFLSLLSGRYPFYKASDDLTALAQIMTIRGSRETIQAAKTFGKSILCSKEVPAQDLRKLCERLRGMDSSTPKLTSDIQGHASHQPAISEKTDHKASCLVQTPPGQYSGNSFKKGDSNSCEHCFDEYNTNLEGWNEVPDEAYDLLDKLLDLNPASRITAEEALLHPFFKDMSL
T1 sequence (Q9UBU7 whole entry partner): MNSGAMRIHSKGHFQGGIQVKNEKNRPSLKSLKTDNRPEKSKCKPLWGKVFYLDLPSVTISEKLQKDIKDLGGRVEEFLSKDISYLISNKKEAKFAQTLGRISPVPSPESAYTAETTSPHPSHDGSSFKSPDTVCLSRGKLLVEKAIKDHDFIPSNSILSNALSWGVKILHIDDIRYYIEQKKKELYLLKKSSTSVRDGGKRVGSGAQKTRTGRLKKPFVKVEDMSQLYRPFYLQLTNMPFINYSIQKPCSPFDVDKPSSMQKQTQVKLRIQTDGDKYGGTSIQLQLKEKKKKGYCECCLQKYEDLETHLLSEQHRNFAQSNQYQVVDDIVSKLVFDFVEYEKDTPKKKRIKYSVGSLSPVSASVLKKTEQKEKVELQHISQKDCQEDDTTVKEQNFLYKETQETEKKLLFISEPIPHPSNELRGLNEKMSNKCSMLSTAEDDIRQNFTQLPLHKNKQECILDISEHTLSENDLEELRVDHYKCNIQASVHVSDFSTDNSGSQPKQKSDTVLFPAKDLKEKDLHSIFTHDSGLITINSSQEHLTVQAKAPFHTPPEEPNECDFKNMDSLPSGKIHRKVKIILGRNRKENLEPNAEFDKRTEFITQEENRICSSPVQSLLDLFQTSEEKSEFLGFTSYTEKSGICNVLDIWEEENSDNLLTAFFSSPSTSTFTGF

For orientation: IC50 means the point on the concentration scale where inhibition reaches its midpoint. `CN1CCC[C@H]1c1nc2c3c(oc2c(=O)[nH]1)-c1c[nH]nc1CCC3` [Compound 3-1] displayed an IC50 on CDC7/DBF4 [1] of 0.6 nM.
Regarding `O=c1[nH]c(C2CC3CCN2CC3)nc2c3c(oc12)-c1c[nH]nc1CCC3` (single isomer, unassigned) [Compound 1-1], inhibition against CDC7/DBF4 [1] was half-maximal at 1.49 nM (IC50).
The compound `O=c1[nH]c([C@H]2CCCN2)nc2c3c(oc12)-c1c[nH]nc1CCC3` [Compound 2-2] returned an IC50 against CDC7/DBF4 [1] of 1.41 nM.
`CN1CCC[C@@H]1c1nc2c3c(oc2c(=O)[nH]1)-c1c[nH]nc1CCC3` [Compound 3-2] displayed an IC50 against CDC7/DBF4 [1] of 1.97 nM.
On to `O=c1[nH]c(C2CC3CCN2CC3)nc2c3c(oc12)-c1c[nH]nc1CCC3` (single isomer, unassigned) [Compound 1-2], for which the IC50 with COLO205 cells came out at 51.7 nM; against CDC7/DBF4 [1] it was 2.8 nM.
In the case of `O=c1[nH]c([C@@H]2CCCN2)nc2c3c(oc12)-c1c[nH]nc1CCC3` [Compound 2-1], half-maximal inhibition against CDC7/DBF4 [1] (IC50) was put at 0.95 nM.
As to `Cc1[nH]ncc1-c1cc2nc([C@@H]3CC4CCN3CC4)[nH]c(=O)c2s1` [TAK-931], at CDC7/DBF4 [2], the IC50 is 2.59 nM. Further, in series [3], the IC50 is 85.5 nM. In addition, the “inhibitory activity against tumors in PDX models” value with tumors in 25 PDX models is reported as “excellent inhibitory activity”. For the same compound, in series [4], the “clearance rate in vivo” value was “high clearance rate” and the half-life in vivo entry is given as “short half-life”.
